This note sets out measurements from patent US20220380341A1, “INHIBITORS OF HIV-1 NEF FOR THE TREATMENT OF HIV DISEASE” (priority 2018, published 2022).

SMILES strings stand for the structures. Where two headings read alike, the source gives them in different places.

One series has as its system HIV-1NL4-3. Briefly: HIV-1 infectivity assay in TZM-bl reporter cell line (LTR-luciferase, 48 h). The format is cell-based. The conditions noted are these: Human immunodeficiency virus 1, TZM-bl. As for the experimental part:
(§1) In particular, the tables show antiretroviral activity as percent inhibition of HIV-1 infectivity at 1 μM. In brief, this assay uses the TZM-bl reporter cell line, which carries a stable copy of the HIV-1 LTR coupled to luciferase. Cells are infected with HIV-1NL4-3 in the presence and absence of each compound, and luciferase activity is measured 48 h later. This assay measures early events in the HIV-1 life cycle, including viral entry, reverse transcription, nuclear entry and integration, and viral transcription. All assays include control cells infected with Nef-defective HIV-1, which replicates at 30-50% of wild-type in this system. Results are normalized to percent inhibition relative to DMSO-treated control cells infected with wild-type HIV-1 (0% inhibition) and DMSO-treated cells infected with Nef-defective HIV-1 (100% of the Nef-dependent effect)—see column 3. In addition, cell viability is measured in the TZM-bl cell line in the presence of each test compound and in the absence of HIV-1 infection, using the Cell Titer Blue cell viability assay (Promega; column 4).

The next series concerns the target HIV-1 NefNL4-3 (Human immunodeficiency virus type 1 group M subtype B, UniProt P03406, A33V/T15A/T51N/V11I). Briefly: Surface plasmon resonance binding to recombinant full-length Nef (NL4-3). Conditions: for RU30/RUNef (extent of binding): response units at 30 μM relative to Nef immobilized on the SPR chip. On the technique in general: Surface plasmon resonance follows binding to a sensor surface in real time, without labels.

A further series has as its system TZM-bl cell line. It is filed as cell-based. Conditions: human, 1 μM. As for the experimental part:
as §1

[1] abbreviates: 48 h, Table 1, TZM-bl cells, 1 μM, 48 h, 100% = Nef-defective HIV-1, read-out: HIV-1 Infectivity % Inhibition Norm. to Δ-Nef @ 1 μM.
Setting [2] is: Nef NL4-3 Binding, SPR 1:1 or 2-site fitting KD2, Table 1, 2-site fit, second component.
The mark [3] stands for this setting: 1.0 μM, TZM-bl reporter cell line, Table 4, read-out: % Infectivity Inhibition.
The mark [4] stands for this setting: KD, M, Table 4, SPR fit 1:1 Langmuir, KD = koff/kon.
[5] abbreviates: Table 4, 1:1 Langmuir fit, T = 1/koff.
Setting [6] is: KD, M, Table 4, SPR fit 2-step induced fit, KD = koff/kon × koff2/(koff2 + kon2).
[7] abbreviates: Nef NL4-3 Binding, SPR 2-state fitting KD, Table 1, 2-step induced-fit model.
The mark [8] stands for this setting: Table 4, 2-step induced fit, T = 1/koff2.
The mark [9] stands for this setting: read-out: Nef NL4-3 Binding, SPR 1:1 or 2-site fitting KD2, Table 1, 2-site fit, second component.

On to `Oc1c(CCc2ccc(F)cc2)c(-c2ccc(C(F)(F)F)cc2)nn1-c1nc2ccccc2[nH]1` [Compound I-106, 1-(1H-1,3-benzodiazol-2-yl)-4-[2-(4-fluorophenyl)ethyl]-3-[4-(trifluoromethyl)phenyl]-1H-pyrazol-5-ol], for which the inhibition (as a rule, the change of the read-out against control, counted positive when it falls) at 1 µM with HIV-1NL4-3 (setting [1]) is 98.2%. Also, the figures for the Kd on HIV-1 NefNL4-3 and on HIV-1 NefNL4-3 (setting [2]) were 20200 nM and 3260 nM, respectively. Besides, in the series with TZM-bl cell line, the “Percent Viability @ 1 μM (TZM-bl cells)” value was 84.5%.

Turning to `CC(C)(O)C(=O)N1CCC(c2nn(-c3nc4ccccc4[nH]3)c(O)c2CCc2ccc(F)cc2)CC1` [Compound I-745, 1-{4-[1-(1H-1,3-benzodiazol-2-yl)-4-[2-(4-fluorophenyl)ethyl]-5-hydroxy-1H-pyrazol-3-yl]piperidin-1-yl}-2-hydroxy-2-methylpropan-1-one], the inhibition at 1 µM in the series with HIV-1NL4-3 (setting [1]) was found to be 23.8%. Besides, on HIV-1 NefNL4-3, the Kd amounted to 10100 nM. In addition, in the series with TZM-bl cell line, the “Percent Viability @ 1 μM (TZM-bl cells)” value is 100.0%.

With `Oc1c(CC2CCN(CC(F)(F)F)CC2)c(-c2ccc(C(F)(F)F)cc2)nn1-c1nc2ccccc2[nH]1` [Compound I-1005, 1-(1H-1,3-benzodiazol-2-yl)-4-{[1-(2,2,2-trifluoroethyl)piperidin-4-yl]methyl}-3-[4-(trifluoromethyl)phenyl]-1H-pyrazol-5-ol], the inhibition at 1 µM in the series with HIV-1NL4-3 (setting [3]) was found to be 49.2%. Further, the inhibition at 1 µM in the series on HIV-1NL4-3 (setting [1]) stood at 49.2%. In addition, on HIV-1 NefNL4-3, the Kd turned out to be 91 nM and the “RU30/RUNef (extent of binding)” value turned out to be 1.26E- 03. At HIV-1 NefNL4-3 (setting [4]), the Kd stood at 91 nM. The “T, minutes (residence time)” value at HIV-1 NefNL4-3 (setting [5]) is 9.47E + 00 minutes. Besides, in the series with TZM-bl cell line, the “% Cell Viability” value amounted to 93.5% and the “Percent Viability @ 1 μM (TZM-bl cells)” value was found to be 93.5%.

With `O=C(c1nn(-c2nc3ccccc3[nH]2)c(O)c1CCc1ccc(F)cc1)N1CCCCC1` [Compound I-406, 1-(1H-1,3-benzodiazol-2-yl)-4-[2-(4-fluorophenyl)ethyl]-3-(piperidine-1-carbonyl)-1H-pyrazol-5-ol], the inhibition at 1 µM in the series on HIV-1NL4-3 (setting [3]) was 0%; with HIV-1NL4-3 (setting [1]) it was -4.4%. The Kd is 549 nM on HIV-1 NefNL4-3, 2670 nM on HIV-1 NefNL4-3 (setting [6]), 1230 nM on HIV-1 NefNL4-3 (setting [2]) and 2670 nM at HIV-1 NefNL4-3 (setting [7]). Also, the “T, minutes (residence time)” value at HIV-1 NefNL4-3 (setting [8]) worked out at 2.85E + 00 minutes. Besides, at HIV-1 NefNL4-3, the “RU30/RUNef (extent of binding)” value was 7.13E- 03. Besides, the “% Cell Viability” value in the series on TZM-bl cell line was 100%. Further, the “Percent Viability @ 1 μM (TZM-bl cells)” value in the series on TZM-bl cell line is 109.7%.

In the case of `Oc1c(CCC2CCNCC2)c(-c2ccc(C(F)(F)F)cc2)nn1-c1nc2ccccc2[nH]1` [Compound I-552, 1-(1H-1,3-benzodiazol-2-yl)-4-[2-(piperidin-4-yl)ethyl]-3-[4-(trifluoromethyl)phenyl]-1H-pyrazol-5-ol], the inhibition at 1 µM with HIV-1NL4-3 (setting [3]) and in the series on HIV-1NL4-3 (setting [1]) was 50.5% throughout. Also, the Kd on HIV-1 NefNL4-3 was determined as 554 nM; at HIV-1 NefNL4-3 (setting [6]), 1040 nM; at HIV-1 NefNL4-3 (setting [7]) it was 749 nM; at HIV-1 NefNL4-3 (setting [9]), 16500 nM. Moreover, the “T, minutes (residence time)” value at HIV-1 NefNL4-3 (setting [8]) is on record as 2.17E + 01 minutes. Also, the “RU30/RUNef (extent of binding)” value at HIV-1 NefNL4-3 was 1.04E- 02. The “% Cell Viability” value with TZM-bl cell line is given as 91.4%. Besides, in the series with TZM-bl cell line, the “Percent Viability @ 1 μM (TZM-bl cells)” value turned out to be 91.4%.

As to `CC(C)(O)C(=O)N1CCC(Cc2nn(-c3nc4ccccc4[nH]3)c(O)c2CCc2ccc(F)cc2)CC1` [Compound I-777, 1-(4-{[1-(1H-1,3-benzodiazol-2-yl)-4-[2-(4-fluorophenyl)ethyl]-5-hydroxy-1H-pyrazol-3-yl]methyl}piperidin-1-yl)-2-hydroxy-2-methylpropan-1-one], the inhibition at 1 µM in the series with HIV-1NL4-3 (setting [3]) worked out at 0%. Also, the inhibition at 1 µM with HIV-1NL4-3 (setting [1]) is -3.6%. Moreover, at HIV-1 NefNL4-3, the Kd turned out to be 997 nM and the “RU30/RUNef (extent of binding)” value came out at 2.23E- 03. The Kd on HIV-1 NefNL4-3 (setting [4]) turned out to be 997 nM. Moreover, the “T, minutes (residence time)” value at HIV-1 NefNL4-3 (setting [5]) is reported as 3.50E + 00 minutes. In the series on TZM-bl cell line, the “% Cell Viability” value was found to be 97.0% and the “Percent Viability @ 1 μM (TZM-bl cells)” value came out at 97.0%.

For the compound `CS(=O)(=O)N1CCC(CCc2c(-c3ccc(C(F)(F)F)cn3)nn(-c3nc4cc(Br)ccc4[nH]3)c2O)CC1` [Compound I-775, 1-(5-bromo-1H-1,3-benzodiazol-2-yl)-4-[2-(1-methanesulfonylpiperidin-4-yl)ethyl]-3-[5-(trifluoromethyl)pyridin-2-yl]-1H-pyrazol-5-ol], in the series with HIV-1NL4-3 (setting [3]), the inhibition at 1 µM turned out to be 62.1%. For the same compound, the inhibition at 1 µM in the series on HIV-1NL4-3 (setting [1]) is 62.1%. On HIV-1 NefNL4-3, the Kd came to 316 nM and the “RU30/RUNef (extent of binding)” value is reported as 1.62E- 03. Besides, the Kd at HIV-1 NefNL4-3 (setting [4]) was 316 nM. Besides, the “T, minutes (residence time)” value at HIV-1 NefNL4-3 (setting [5]) came out at 4.26E + 01 minutes. Besides, in the series with TZM-bl cell line, the “% Cell Viability” value is listed as 72.9% and the “Percent Viability @ 1 μM (TZM-bl cells)” value was 72.9%.

Regarding `Nc1c(CCc2ccc(F)cc2)c(-c2ccc(Cl)cc2)nn1-c1nc2ccccc2[nH]1` [Compound I-1401, 1-(1H-1,3-benzodiazol-2-yl)-3-(4-chlorophenyl)-4-[2-(4-fluorophenyl)ethyl]-1H-pyrazol-5-amine], the inhibition at 1 µM in the series with HIV-1NL4-3 (setting [1]) is -34.5%. The “Nef NL4-3 Binding, SPR 1:1 or 2-site fitting KD1” value at HIV-1 NefNL4-3 (Table 1, 1:1 Langmuir fit where the KD2 cell says '1 to 1 fitting', else 2-site fit) is on record as “No Interaction”. The “Percent Viability @ 1 μM (TZM-bl cells)” value in the series with TZM-bl cell line came out at 99.7%.

As to `Cn1ccc(-c2nn(-c3nc4ccccc4[nH]3)c(O)c2CCc2ccc(F)cc2)cc1=O` [Compound I-133, 4-[1-(1H-1,3-benzodiazol-2-y1)-4-[2-(4-fluorophenyl)ethyl]-5-hydroxy-1H-pyrazol-3-yl]-1-methyl-1,2-dihydropyridin-2-one], the inhibition at 1 µM in the series on HIV-1NL4-3 (setting [3]) and with HIV-1NL4-3 (setting [1]) was 16% each time. Further, the Kd on HIV-1 NefNL4-3 was 779 nM; at HIV-1 NefNL4-3 (setting [6]), 1.51 nM; at HIV-1 NefNL4-3 (setting [7]) it was 1.51 nM; at HIV-1 NefNL4-3 (setting [9]), 65300 nM. Further, the “T, minutes (residence time)” value at HIV-1 NefNL4-3 (setting [8]) was 8.59E + 03 minutes. Besides, the “RU30/RUNef (extent of binding)” value at HIV-1 NefNL4-3 was determined as 2.76E- 03. For the same compound, the “% Cell Viability” value with TZM-bl cell line was determined as 100%. The “Percent Viability @ 1 μM (TZM-bl cells)” value in the series with TZM-bl cell line worked out at 102.5%.

For `O=S(=O)(C1CC1)N1CCC(c2nn(-c3nc4ccccc4[nH]3)c(O)c2CCc2ccc(F)cc2)CC1` [Compound I-748, 1-(1H-1,3-benzodiazol-2-yl)-3-[1-(cyclopropanesulfonyl)piperidin-4-yl]-4-[2-(4-fluorophenyl)ethyl]-1H-pyrazol-5-ol], the inhibition at 1 µM in the series with HIV-1NL4-3 (setting [1]) amounted to 22.3%. The Kd at HIV-1 NefNL4-3 worked out at 4150 nM. The “Percent Viability @ 1 μM (TZM-bl cells)” value in the series on TZM-bl cell line is recorded as 94.8%.

In the case of `CS(=O)(=O)c1ccc(-c2nn(-c3nc4cc(Cl)ccc4[nH]3)c(O)c2CCC2CCNCC2)cc1` [Compound I-550, 1-(5-chloro-1H-1,3-benzodiazol-2-yl)-3-(4-methanesulfonylphenyl)-4-[2-(piperidin-4-yl)ethyl]-1H-pyrazol-5-ol], the inhibition at 1 µM in the series with HIV-1NL4-3 (setting [3]) was 0%; with HIV-1NL4-3 (setting [1]) it was -12.9%. In addition, the Kd was 282 nM at HIV-1 NefNL4-3, 8.54 nM at HIV-1 NefNL4-3 (setting [6]), 8.54 nM on HIV-1 NefNL4-3 (setting [7]) and 6200 nM at HIV-1 NefNL4-3 (setting [9]). The “T, minutes (residence time)” value on HIV-1 NefNL4-3 (setting [8]) amounted to 3.33E + 03 minutes. In addition, the “RU30/RUNef (extent of binding)” value at HIV-1 NefNL4-3 was 1.75E- 02. Besides, in the series with TZM-bl cell line, the “% Cell Viability” value was 98.8%. The “Percent Viability @ 1 μM (TZM-bl cells)” value in the series with TZM-bl cell line is recorded as 98.8%.
